Assays:
Assay in all cases: relative viability (nuclei count vs DMSO), 5 days (fraction); higher = more cells survive
Venetoclax = compound: CC1(C)CCC(CN2CCN(c3ccc(C(=O)NS(=O)(=O)c4ccc(NCC5CCOCC5)c([N+](=O)[O-])c4)c(Oc4cnc5[nH]ccc5c4)c3)CC2)=C(c2ccc(Cl)cc2)C1 [Venetoclax]
How it was run: (§1)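 Only plates meeting two conditions passed: control CV below 25% and at least one doubling. Lung cancer cell lines, kept overnight at 37 °C in 1536-well plates, were pinned with five library-drug doses (not always all listed) √10 apart on vehicle-anchored plates and grown 5 days without medium change. A one-step fix, permeabilisation and Hoechst stain preceded 4× imaging and MetaXpress nuclear counting. Viability equals treated-well nuclei divided by vehicle-well nuclei, as the median over plates.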

Selumetinib = compound: Cn1cnc2c(F)c(Nc3ccc(Br)cc3Cl)c(C(=O)NOCCO)cc21 [Selumetinib]
How it was run: as §1

Selumetinib + Bortezomib = compound: Cn1cnc2c(F)c(Nc3ccc(Br)cc3Cl)c(C(=O)NOCCO)cc21 [Selumetinib] + CC(C)C[C@H](NC(=O)[C@H](Cc1ccccc1)NC(=O)c1cnccn1)B(O)O [Bortezomib] (partner 0.002 µM)
How it was run: (§2)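 For relative viability, nuclei counts in treated wells were divided by those in vehicle wells. Lung cancer cell lines had been pin-tool dosed in 1536-well plates the day after seeding and cultured for 5 days, then fixed and stained in one step (final 0.05% Triton X-100, 1% formaldehyde, 1 ug/ml Hoechst) and imaged at 4×. Doses were one drug alone or a fixed anchor-drug dose plus five library-drug doses (not always all listed) in √10 steps, and values are duplicate-plate medians.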

Venetoclax + Alpelisib = compound: CC1(C)CCC(CN2CCN(c3ccc(C(=O)NS(=O)(=O)c4ccc(NCC5CCOCC5)c([N+](=O)[O-])c4)c(Oc4cnc5[nH]ccc5c4)c3)CC2)=C(c2ccc(Cl)cc2)C1 [Venetoclax] + Cc1nc(NC(=O)N2CCC[C@H]2C(N)=O)sc1-c1ccnc(C(C)(C)C(F)(F)F)c1 [Alpelisib] (partner 2 µM)
How it was run: as §2

Cell Line	relative viability (Venetoclax; 0.01 µM)	relative viability (Venetoclax; 0.03162 µM)	relative viability (Venetoclax; 0.1 µM)	relative viability (Venetoclax; 0.3162 µM)	relative viability (Venetoclax; 1 µM)	relative viability (Selumetinib; 0.02 µM)	relative viability (Selumetinib; 0.06325 µM)	relative viability (Selumetinib; 0.2 µM)	relative viability (Selumetinib; 0.6325 µM)	relative viability (Selumetinib + Bortezomib; first compound 0.02 µM)	relative viability (Selumetinib + Bortezomib; first compound 0.06325 µM)	relative viability (Selumetinib + Bortezomib; first compound 0.2 µM)	relative viability (Selumetinib + Bortezomib; first compound 0.6325 µM)	relative viability (Venetoclax + Alpelisib; first compound 0.01 µM)	relative viability (Venetoclax + Alpelisib; first compound 0.03162 µM)	relative viability (Venetoclax + Alpelisib; first compound 0.1 µM)	relative viability (Venetoclax + Alpelisib; first compound 0.3162 µM)	relative viability (Venetoclax + Alpelisib; first compound 1 µM)
Calu-6	1.03	1.06	0.985	0.991	0.973	1.04	0.777	0.677	0.478	1.07	0.792	0.648	0.558	0.946	0.917	0.98	1.02	0.998
EBC-1	0.961	1.05	0.961	0.926	0.894	0.959	0.828	0.759	0.523	0.759	0.625	0.578	0.304	0.815	0.869	0.806	0.831	0.875
EPLC-272H	0.874	1.09	0.934	1.03	0.888	0.875	0.774	0.614	0.648	0.966	0.864	0.779	0.567	–	0.95	0.986	1.11	0.977
A-427	0.892	1.14	0.901	1.08	0.998	1.1	0.994	1.03	1.05	1.06	0.978	1.05	0.959	1.02	1.09	1.13	1.07	1.17
NCI-H3122	1.06	1	0.967	0.962	0.983	0.846	0.75	0.697	0.67	0.896	0.811	0.779	0.78	0.874	0.751	0.757	0.731	0.884
NCI-H1563	0.999	0.963	0.971	1.04	1.07	0.957	0.868	0.981	0.91	0.804	0.68	0.726	0.786	1.03	0.938	0.852	0.987	1.03
SK-LU-1	0.953	1.16	0.991	1.01	1.02	1.07	0.904	0.8	0.484	1.25	1.28	0.918	0.715	0.899	1.15	0.855	0.981	0.854
NCI-H2347	1.06	1.12	0.965	0.978	0.977	0.917	0.667	0.492	0.386	0.755	0.817	0.6	0.45	1.04	1.04	1.06	1	1.04
IA-LM	0.813	1.05	0.886	0.915	0.886	0.776	0.442	0.246	0.186	0.742	0.497	0.304	0.257	0.614	0.726	0.892	0.61	0.604
HCC-15	0.937	1.07	0.929	0.902	0.909	0.844	0.64	0.487	0.389	0.842	0.677	0.559	0.424	0.872	0.91	0.723	0.857	0.735
PC-3 [JPC-3]	0.995	1.07	1.06	1.04	0.917	1.01	1	0.869	0.787	0.822	0.813	0.669	0.551	0.917	1.03	1.01	0.967	1.01
NCI-H1915	0.954	1.03	0.937	0.991	0.92	1.07	0.84	0.666	0.581	1.07	0.877	0.747	0.617	1.03	1.05	1.02	1.01	1.06
HCC-827	1.03	1.07	0.924	1.02	1.04	1.03	1.06	0.994	0.941	1.22	1.03	1.02	0.975	0.954	0.977	1	0.976	0.994
LC-2-ad	0.942	1.01	0.978	1	0.964	0.948	0.896	0.885	0.899	1.05	1.01	0.831	0.943	0.839	0.906	1.02	0.871	0.905
NCI-H460	0.98	0.965	0.941	0.989	0.923	0.963	0.801	0.823	0.545	0.962	0.684	0.852	0.458	0.539	0.446	0.446	0.472	0.447
NCI-H441	0.952	1.08	0.97	0.974	0.865	1.18	0.922	0.827	0.649	0.658	0.345	0.544	0.506	0.828	0.705	0.821	0.899	0.608
LCLC-97TM1	0.901	1.16	0.815	0.962	0.853	0.94	0.846	0.735	0.413	0.522	0.379	0.294	0.157	–	0.317	0.248	0.241	0.249

Cell Line	relative viability (Venetoclax; 0.01 µM)	relative viability (Venetoclax; 0.03162 µM)	relative viability (Venetoclax; 0.1 µM)	relative viability (Venetoclax; 0.3162 µM)	relative viability (Venetoclax; 1 µM)	relative viability (Selumetinib; 0.02 µM)	relative viability (Selumetinib; 0.06325 µM)	relative viability (Selumetinib; 0.2 µM)	relative viability (Selumetinib; 0.6325 µM)	relative viability (Selumetinib + Bortezomib; first compound 0.02 µM)	relative viability (Selumetinib + Bortezomib; first compound 0.06325 µM)	relative viability (Selumetinib + Bortezomib; first compound 0.2 µM)	relative viability (Selumetinib + Bortezomib; first compound 0.6325 µM)	relative viability (Venetoclax + Alpelisib; first compound 0.01 µM)	relative viability (Venetoclax + Alpelisib; first compound 0.03162 µM)	relative viability (Venetoclax + Alpelisib; first compound 0.1 µM)	relative viability (Venetoclax + Alpelisib; first compound 0.3162 µM)	relative viability (Venetoclax + Alpelisib; first compound 1 µM)
COR-L23	0.979	1.03	0.967	0.999	0.911	1.09	1.03	1.07	0.99	1.27	0.939	1.06	0.968	0.7	0.753	0.745	0.766	0.741
NCI-H2228	0.942	1.03	0.86	0.891	0.965	0.898	0.958	0.943	0.797	0.923	0.989	0.75	0.584	0.696	0.842	0.698	0.628	0.757
LCLC-103H	1.06	0.999	1.04	1.01	1	0.916	0.897	0.87	0.84	1.01	1.06	0.993	0.978	1.04	0.983	1.04	1	0.974
NCI-H1993	0.892	0.999	0.904	0.91	0.838	0.794	0.727	0.728	0.762	0.861	0.897	0.873	0.806	0.676	0.696	0.665	0.617	0.68
NCI-H2087	0.921	1.03	0.821	1.01	1.02	0.849	0.672	0.48	0.318	0.626	0.542	0.456	0.351	1.16	1.11	0.808	1.22	0.664
COR-L 105	0.946	0.917	0.834	1.02	0.873	0.713	0.572	0.672	0.55	0.813	0.477	0.609	0.567	0.983	0.959	1.13	0.91	1.02
SW 1573	0.974	0.985	0.911	0.969	0.877	0.882	0.814	0.754	0.833	1.01	0.86	0.802	0.932	0.74	0.754	0.632	0.758	0.681
NCI-H1355	0.957	0.983	1.01	1.03	0.904	0.949	0.85	0.749	0.743	1.18	1.17	0.884	0.822	0.842	0.782	0.784	0.785	0.805
RERF-LC-KJ	0.987	1.06	0.972	0.909	0.926	1	0.936	0.968	0.886	1.05	1.01	0.92	0.944	0.769	0.871	0.736	0.91	0.779
NCI-H727	1.17	0.993	0.848	0.953	0.827	0.5	0.418	0.352	0.385	0.58	0.351	0.359	0.337	0.553	0.608	0.525	0.558	0.571
NCI-H1734	0.906	1.03	0.868	0.957	0.912	1	0.936	0.928	0.919	1.04	0.819	1.02	0.835	0.682	0.732	0.624	0.628	0.689
NCI-H2126	1	1.07	0.992	0.996	0.953	0.932	0.883	0.857	0.77	1.09	1.01	0.984	0.996	0.807	0.728	0.759	0.819	0.796
NCI-H1792	0.892	1.06	0.918	0.98	0.856	0.901	0.728	0.827	0.689	0.852	0.789	0.706	0.677	0.674	0.669	0.542	0.616	0.622
NCI-H23	1	1.06	0.85	1.07	0.877	1.05	0.78	0.758	0.674	1.34	0.967	0.721	0.965	0.658	0.62	0.64	0.644	0.546
EMC-BAC-2	0.977	1.14	0.945	1.15	0.96	1.38	1.16	1.06	1.13	1.06	1.07	1.01	0.999	0.707	0.744	0.747	0.73	0.687
NCI-H2023	0.932	1.05	1.05	0.953	0.859	0.987	0.841	0.862	0.758	0.899	0.785	0.895	0.896	0.574	0.573	0.544	0.553	0.551
NCI-H647	1.06	0.991	0.798	1	0.884	0.936	0.797	0.809	0.793	0.96	0.946	0.901	0.73	0.703	1.05	–	1	1.01
